# Laboratory results from paper PMC10039358, “The 8-bromobaicalein inhibited the replication of dengue, and Zika viruses and targeted the dengue polymerase” (Scientific Reports, 2023).
# How the values were obtained:
# in vitro = assay: in vitro
# Source text: (§1) LLC/MK2 (ATCC® CCL-7), HEK-293 (ATCC® CRL-1573), HepG2 (ATCC® HB-8065), THP-1 (ATCC® TIB-202), Huh-7, RD (ATCC® CCL-136™), and C6/36 (ATCC® CRL-1660) cell lines were propagated and maintained as previously described[16],[21],[40],[53]. Reference DENV1 (16007), DENV2 (NGC, 16681), DENV3 (16562), DENV4 (1036), ZIKV (SV0127/14), and EV-A71 (BRCR) were propagated in Vero, C6/36, and R.D. cells as described[16],[21] Phumee et al.[53]. Cytotoxic concentration (CC50) of LLC/MK2, THP-1, HEK-293, HepG2, Huh-7, and R.D. cells were analyzed as previously described. […] Briefly, cells were seeded overnight and infected with each virus at the multiplicity of infection (M.O.I.) of 0.1 for 1 h. The compound was added during and after infection, and cells were incubated for 72 h. Supernatants were collected for 96-well[55] or a traditional 24-well plaque titration.
# (§2) Supplementary Fig. S2. […] Briefly, cells were seeded overnight before the compound addition.
# DENV1 (16008) = assay: Antiviral efficacy (EC50), plaque titration; type: cell-based; settings: for EC50: LLC-MK2, 72 h
# Source text: as §1
# DENV2 (NGC) = assay: Antiviral efficacy (EC50), plaque titration; type: cell-based; settings: for EC50: Dengue virus, DENV2, LLC-MK2, 72 h
# Source text: as §1
# DENV3 (16562) = assay: Antiviral efficacy (EC50), plaque titration; type: cell-based; settings: for EC50: LLC-MK2, 72 h
# Source text: as §1
# DENV4 (1036) = assay: Antiviral efficacy (EC50), plaque titration; type: cell-based; settings: for EC50: LLC-MK2, 72 h
# Source text: as §1
# ZIKV (SV0127/14) = assay: Antiviral efficacy (EC50), plaque titration; type: cell-based; settings: for EC50: Zika virus, ZIKV (SV0127/14), LLC/MK2 cells, M.O.I. 0.1, 72 h
# Source text: as §1
# DENV2 NS5/RdRp = target: T1, DENV2 NS5/RdRp (Dengue virus type 2, UniProt P29990); assay: In vitro RdRp assay (SYTO-9 fluorescence); type: biochemical, DENV-2
# T1 construct: The 73.2 kDa of non-tagged NS5/RdRp was successfully purified by size exclusion chromatography; His-tag (N, cleaved yes); made in house
# Procedure: The production of DENV2 RdRp was performed according to a described protocol. In brief, N-terminally Histidine-tagged DENV2 RdRp (NHis-RdRp) was expressed with 200 µM IPTG (isopropyl-b-D-thiogalactopyranoside) induction, at 37 °C for 4 h. Cell disruption and clarification were sequentially done via sonication and centrifugation at 15,000 rpm for 1 h at 4 °C. His-tagged RdRp was purified by immobilized metal affinity chromatography (IMAC) with 175 mM imidazole elution. His-tag was removed by adding 2 units thrombin per 1 mg protein during dialysis for 2 days at 4 °C. The non-tagged RdRp was further purified by size exclusion chromatography. […]
# The RdRp assay for inhibition testing was adapted from the previous publications[46],[71]. […] The nascent double-stranded RNA was quantitated by mixing 10 µl of the reaction mixture with 10 µl of 5 µM SYTO-9 dye in Tris–EDTA buffer and incubating at room temperature for 5 min. Fluorescence was measured at excitation and emission wavelengths of 485 nm and 520 nm, respectively, by using EnSight Multimode Plate Reader (Perkin Elmer, Waltham, MA, USA). The IC50 value was calculated from three independent experiments by using PRISM version 9 (GraphPad Software, Inc., La Jolla, CA, USA).
# [1] = tested on: dengue, Zika, and Japanese encephalitis viruses; settings: depending the assay and detection systems ref 32, 47, 48; cited from earlier work
# Vero = settings: cited from earlier work
# A549 = settings: cited from earlier work
# HaCat cells = settings: cited from earlier work
# [2] = Cytotoxicity (CC50), MTS assay; settings: human
# Source text: as §1, §2
# [3] = Cytotoxicity (CC50), MTS assay; settings: human; remark: listed apart in the source
# Source text: as §1, §2
# [4] = Cytotoxicity (CC50), MTS assay; settings: human; remark: listed apart in the source
# Source text: as §1, §2
# [5] = Cytotoxicity (CC50), MTS assay; settings: human; remark: listed apart in the source
# Source text: as §1, §2
# EV-A71 (BRCR) = assay: Antiviral efficacy (EC50), plaque titration; type: cell-based
# Source text: as §1
# DENV1-4, and ZIKV = assay: Antiviral efficacy, summary over dengue serotypes and Zika; type: cell-based
# DENV-2 MTase = target: T2, DENV-2 MTase (Dengue virus type 2, UniProt P14340); assay: MTase-Glo methyltransferase assay; type: biochemical; settings: 100 µM compound
# T2 construct: N-terminally Histidine-tagged DENV-2 MTase (NHis-MTase) synthesized according to previous description; His-tag (N)
# Procedure: The production of DENV2 MTase was performed according to a described protocol. In brief, N-terminally Histidine-tagged DENV-2 MTase (NHis-MTase) synthesized according to previous description[30] (GenScript; Piscataway, NJ, USA) was expressed with 100 µM IPTG (isopropyl-b-D-thiogalactopyranoside) induction, at 27 °C for 16 h. Cell disruption and clarification were sequentially done via sonication and centrifugation at 12,000 rpm for 30 min at 4 °C. His-tagged […] was purified by immobilized metal affinity chromatography (IMAC; Cytiva, Marlborough, MA, USA) with 500 mM imidazole elution. The eluate was dialyzed against 2 L of 50 mM Tris, pH 7.5, 50 mM NaCl, 1 mM MgCl2, 40% glycerol, and 1 mM DTT at 4 °C overnight. The purified enzyme was verified by Coomassie staining and methyltransferase activity.
# The MTase assay for inhibition testing was adapted from the previous publications. The MTase assay for inhibition testing was performed using MTase-Glo™ Methyltransferase Assay according to the manufacturer’s protocol (Promega, Madison, Wisconsin, USA). Each reaction was performed in 50 µl reaction using the MTase from DENV-2. […] The luminescence was measured using VICTORTM X3 2030 Multilabel Reader (Perkin Elmer, Waltham, MA, USA). The percent enzyme activity was calculated from two independent experiments by using PRISM version 9 (GraphPad Software, La Jolla, CA, USA).
# DENV2 NGC = assay: Cell-based time-of-addition study, plaque assay; settings: 2, 5 or 10 µM, added within 12 h after infection, LLC/MK2, harvested 72 h
# Procedure: Figure 5 A scheme and DENV2 titers (pfu/ml) in LLC/MK2 cells of time-of-drug addition study. Briefly, the 2, 5, and 10 µM 8-bromobaicalein was added into DENV2-infected cells (M.O.I. of 0.1) at various time points. All supermatants were harvested at 72 h and quantified by plaque assay. Errors indicated the standard deviation of three biological replicates.
# (§3) The protocol was adapted from a previous description. Briefly, LLC/MK2 cells (5 × 10^4) were seeded in a 24-well plate and incubated as described. Cells were infected with DENV2 NGC, unless otherwise indicated, at the M.O.I. of 0.1 before adding the compound at designated concentrations. DMSO at 1% was used as no inhibition control. Supernatants were collected to determined viral titers by plaque titration assay or RT-qPCR.
# DENV3 = assay: Time-of-addition, viral RNA by RT-qPCR; type: cell-based; settings: 10 µM added 1, 6, and 12 h after infection, LLC/MK2, M.O.I. 1
# Procedure: as §3
# (§4) Supplementary Fig. S8. The time-of-addition of 8-bromobaicalein against DENV3-, and ZIKV-infected LLC/MK2 cells. Briefly, the 10 µM 8-bromobaicalein was added to the virus-infected cells (M.O.I. of 1) at 1, 6, 12, 24, and 48 h post-infection. Supernatants were collected at 48 h after infection for analysis by RT-qPCR. Results were reported as percent inhibition from DMSO-treated cells.
# ZIKV = assay: Time-of-addition, viral RNA by RT-qPCR; type: cell-based; settings: 10 µM added 1, 6, and 12 h after infection, LLC/MK2, M.O.I. 1
# Procedure: as §3, §4
# C57BL/6 mice = assay: Animal toxicity, 7 days intraperitoneal
# Procedure: (A) ALT and (B) Cr levels in infant mice and (C) ALT and (D) Cr levels in adult mice taken at the 8th day after seven consecutive days of 10 mg/kg 8-bromobaicalein, once daily, intraperitoneal administration. Plasma samples were collected for analysis of hepatorenal functions. Each data point represented the ALT or Cr levels of each individual. Error bars indicated the standard deviation of the means.
# All methods were carried out in accordance with relevant guidelines and regulations. All experimental protocols were approved by the Institutional Animal Care and Use Committee of the Faculty of Medicine, Chulalongkorn University, Bangkok, Thailand (certificate number: 027/2562), based on the National Institutes of Health, U.S.A.'s criteria for the use and treatment of laboratory animals and by the National University of Singapore (protocol number: R20-0073). All methods are reported in accordance with ARRIVE guidelines (https://arriveguidelines.org) for the reporting of animal experiments. The 8-bromobaicalein was daily administered at 10 mg/kg via intraperitoneal injection for 7 days (n = 6) to determine the drug safety. The control group (n = 6) was injected with the vehicle (5% DMSO, 33.25% polyethylene glycol (PEG.)-400, 1.90% ethanol, and 59.85% distilled water). All mice were weighed daily and monitored for clinical signs using a clinical scoring system. Blood samples were collected via submandibular and cardiac puncture at the 8th day after the first compound administration for alanine transaminase (EnzyChrom, EALT-100, BioAssay, Hayward, CA, USA), and serum creatinine (QuantiChromTM, DICT-500, BioAssay, Hayward, CA, USA) as markers of hepatotoxicity and nephrotoxicity, respectively.
# [6] = tested on: chikungunya virus (CHIKV); assay: Antiviral efficacy (EC50) against chikungunya virus; type: cell-based; settings: LLC-MK2
# various cell lines = assay: Cytotoxicities in various cell lines, summary; type: cell-based; settings: 100 µM, most cells
# Procedure: as §2
# [7] = 8th day after first injection, 10 mg/kg i.p., infant and adult
# T2 sequence (P14340 2493-2755): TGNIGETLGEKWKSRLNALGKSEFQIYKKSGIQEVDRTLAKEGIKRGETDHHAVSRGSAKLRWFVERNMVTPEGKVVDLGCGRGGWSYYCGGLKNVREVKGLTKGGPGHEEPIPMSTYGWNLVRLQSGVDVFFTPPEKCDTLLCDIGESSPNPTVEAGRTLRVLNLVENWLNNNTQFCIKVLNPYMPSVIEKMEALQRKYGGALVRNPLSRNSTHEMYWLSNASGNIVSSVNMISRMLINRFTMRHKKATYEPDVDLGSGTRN
compound,measurement,setting,value
"O=c1cc(-c2ccccc2)oc2cc(O)c(O)c(O)c12 [baicalein, 5,6,7-trihydroxyflavone]",CC50 at 48 h,in vitro; rhesus monkey,> 250000 nM
same,EC50,DENV1 (16008),1400 ± 380 nM
same,EC50,DENV2 (NGC),4040 ± 1370 nM
same,EC50,DENV3 (16562),1190 ± 660 nM
same,EC50,DENV4 (1036),930 ± 130 nM
same,EC50,ZIKV (SV0127/14),1580 ± 420 nM
same,IC50,DENV2 NS5/RdRp,242000 nM
same,EC50,[1],4 to 24000 nM
same,CC50,Vero,> 100000 nM
same,CC50,A549,> 50000 nM
same,CC50,HaCat cells,> 200000 nM
O=c1cc(-c2ccccc2)oc2c(Br)c(O)c(O)c(O)c12 [8-bromobaicalein],CC50 at 48 h,in vitro; human,> 100000 nM
same,CC50 at 48 h,in vitro; rhesus monkey,> 250000 nM
same,CC50 at 48 h,[2],> 100000 nM
same,CC50 at 48 h,[3],> 100000 nM
same,CC50 at 48 h,[4],97900 ± 7060 nM
same,CC50 at 48 h,[5],> 100000 nM
same,Selectivity index (SI),"DENV1 (16008); DENV1, CC50/EC50 in LLC/MK2",> 378.7879
same,EC50,DENV1 (16008),660 ± 50 nM
same,Selectivity index (SI),"DENV2 (NGC); DENV2, CC50/EC50 in LLC/MK2",> 284.0909
same,EC50,DENV2 (NGC),880 ± 140 nM
same,Selectivity index (SI),"DENV3 (16562); DENV3, CC50/EC50 in LLC/MK2",> 312.5
same,EC50,DENV3 (16562),800 ± 80 nM
same,Selectivity index (SI),"DENV4 (1036); DENV4, CC50/EC50 in LLC/MK2",> 312.5
same,EC50,DENV4 (1036),800 ± 150 nM
same,EC50,"EV-A71 (BRCR); Enterovirus A, EVA71, EV-A71 (BRCR), table title LLC/MK2 cells, methods R.D. cells",> 25000 nM
same,Inhibition of enterovirus-A71,EV-A71 (BRCR); nonenveloped enterovirus-A71,did not inhibit
same,Selectivity index (SI),"ZIKV (SV0127/14); ZIKV, CC50/EC50 in LLC/MK2",> 347.2222
same,EC50,ZIKV (SV0127/14),720 ± 200 nM
same,Selectivity index (SI) in dengue and Zika viruses,"DENV1-4, and ZIKV; LLC/MK2",about 300
same,EC50,"DENV1-4, and ZIKV; Zika virus, DENV1, read-out: EC50s against DENV1-4 and ZIKV",660 to 880 nM
same,IC50,DENV2 NS5/RdRp,34900 nM
same,inhibition at 100 µM,DENV-2 MTase,< 50%
same,Inhibition of virion progeny,DENV2 NGC,1–2.5 log concentrations (pfu/mL)
same,Inhibition of DENV3 RNA,DENV3,inhibited
same,Inhibition of ZIKV RNA,ZIKV,inhibited
same,Clinical scorings,"C57BL/6 mice; 10 mg/kg i.p. once daily, 7 days",within normal range
same,General health of mice,"C57BL/6 mice; 10 mg/kg i.p. once daily, 7 days, infant and adult mice",healthy throughout the experiments
same,"Alanine transaminase (ALT) level, treated vs control",C57BL/6 mice; [7],insignificantly different
same,"Plasma creatinine (Cr) level, treated vs control",C57BL/6 mice; [7],insignificantly different
same,ALT in adult cohort,"C57BL/6 mice; adult mice, 10 mg/kg i.p., 7 days",slight ALT increase
same,EC50,[6],490 ± 110 nM
same,Cytotoxicity to cells,various cell lines,not toxic
